# Experimental data: patent US20260262643A1, “HERBICIDAL BENZOXAZINES” (FMC CORPORATION, priority 2022, published 2026)
# Key:
# ragweed [1] = experiment: Test A preemergence; type: in vivo, Ambrosia artemisiifolia; conditions: visual injury after 10 days, 0 to 100 scale, 0 is no effect, 100 is complete control
# In short: (§1)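 Greenhouse pot test, 10 days. Compound (non-phytotoxic solvent, surfactant) sprayed on soil at seeding or on seedlings at one- to two-leaf stage. Visual injury rated 0–100 against untreated plants.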
# oat, wild [2] = experiment: Test A postemergence; type: in vivo, Avena fatua; conditions: postemergence, 10 days
# In short: as §1
# rice = experiment: Test B flooded paddy test; type: in vivo, Oryza sativa; conditions: 250 g ai/ha, Flood, 13 days, 0 to 100 scale (0 no effect, 100 complete control)
# In short: (§2)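 Compound is introduced into paddy water covering soil by 3 cm, treating plants that have reached two leaves. Pots are kept flooded at that depth under greenhouse conditions. Assessment at 13 days gives a 0–100 visual control score.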
# pigweed, palmer [3] = experiment: Test A postemergence; type: in vivo, Amaranthus palmeri; conditions: postemergence, 10 days
# In short: as §1
# goosegrass [4] = experiment: Test A preemergence; type: in vivo, Eleusine indica; conditions: visual injury after 10 days, 0 to 100 scale, 0 is no effect, 100 is complete control
# In short: as §1
# ragweed [5] = experiment: Test A postemergence; type: in vivo, Ambrosia artemisiifolia; conditions: postemergence, 10 days
# In short: as §1
# kochia [6] = experiment: Test A preemergence; type: in vivo, Bassia scoparia; conditions: visual injury after 10 days, 0 to 100 scale, 0 is no effect, 100 is complete control
# In short: as §1
# goosegrass [7] = experiment: Test A postemergence; type: in vivo, Eleusine indica; conditions: postemergence, 10 days
# In short: as §1
# ducksalad = experiment: Test B flooded paddy test; type: in vivo, Heteranthera limosa; conditions: 250 g ai/ha, Flood, 13 days, 0 to 100 scale (0 no effect, 100 complete control)
# In short: as §2
# ryegrass, Italian [8] = experiment: Test A postemergence; type: in vivo, Lolium multiflorum; conditions: postemergence, 10 days
# In short: as §1
# ryegrass, Italian [9] = experiment: Test A preemergence; type: in vivo, Lolium multiflorum; conditions: visual injury after 10 days, 0 to 100 scale, 0 is no effect, 100 is complete control
# In short: as §1
# horseweed = experiment: Test A postemergence; type: in vivo, Erigeron canadensis; conditions: postemergence, 10 days
# In short: as §1
# kochia [10] = experiment: Test A postemergence; type: in vivo, Bassia scoparia; conditions: postemergence, 10 days
# In short: as §1
# pigweed, palmer [11] = experiment: Test A preemergence; type: in vivo, Amaranthus palmeri; conditions: visual injury after 10 days, 0 to 100 scale, 0 is no effect, 100 is complete control
# In short: as §1
# wheat [12] = experiment: Test A preemergence; type: in vivo, Triticum aestivum; conditions: visual injury after 10 days, 0 to 100 scale, 0 is no effect, 100 is complete control
# In short: as §1
# corn [13] = experiment: Test A postemergence; type: in vivo, Zea mays; conditions: postemergence, 10 days
# In short: as §1
# sedge, umbrella = experiment: Test B flooded paddy test; type: in vivo, Cyperus difformis; conditions: 250 g ai/ha, Flood, 13 days, 0 to 100 scale (0 no effect, 100 complete control)
# In short: as §2
# wheat [14] = experiment: Test A postemergence; type: in vivo, Triticum aestivum; conditions: postemergence, 10 days
# In short: as §1
# galium = experiment: Test A postemergence; type: in vivo, Galium aparine; conditions: postemergence, 10 days
# In short: as §1
# blackgrass [15] = experiment: Test A postemergence; type: in vivo, Alopecurus myosuroides; conditions: postemergence, 10 days
# In short: as §1
# blackgrass [16] = experiment: Test A preemergence; type: in vivo, Alopecurus myosuroides; conditions: visual injury after 10 days, 0 to 100 scale, 0 is no effect, 100 is complete control
# In short: as §1
# corn [17] = experiment: Test A preemergence; type: in vivo, Zea mays; conditions: visual injury after 10 days, 0 to 100 scale, 0 is no effect, 100 is complete control
# In short: as §1
# soybean [18] = experiment: Test A preemergence; type: in vivo, Glycine max; conditions: visual injury after 10 days, 0 to 100 scale, 0 is no effect, 100 is complete control
# In short: as §1
# foxtail, giant [19] = experiment: Test A preemergence; type: in vivo, Setaria faberi; conditions: visual injury after 10 days, 0 to 100 scale, 0 is no effect, 100 is complete control
# In short: as §1
# barnyardgrass = experiment: Test B flooded paddy test; type: in vivo, Echinochloa crus-galli; conditions: 250 g ai/ha, Flood, 13 days, 0 to 100 scale (0 no effect, 100 complete control)
# In short: as §2
# soybean [20] = experiment: Test A postemergence; type: in vivo, Glycine max; conditions: postemergence, 10 days
# In short: as §1
# foxtail, giant [21] = experiment: Test A postemergence; type: in vivo, Setaria faberi; conditions: postemergence, 10 days
# In short: as §1
# oat, wild [22] = experiment: Test A preemergence; type: in vivo, Avena fatua; conditions: visual injury after 10 days, 0 to 100 scale, 0 is no effect, 100 is complete control
# In short: as §1
# [23] = 125 g ai/ha, 0 to 100 scale, 0 no effect, 100 complete control
# [24] = 500 g ai/ha, visual injury, 0 to 100 scale (0 no effect, 100 complete control)
smiles,measurement,setting,value
Cc1cccc2c1O[C@@H](C)CN2C(=O)c1cccc(-n2cnn(C(C)C)c2=O)c1 [Compound 118],"Plant response rating, Ragweed",ragweed [1]; 125 g ai/ha,0
same,"Plant response rating, Ragweed",ragweed [1]; 500 g ai/ha,30
same,"Oat, Wild plant response rating","oat, wild [2]; [23]",10
same,"Plant response rating, Oat, Wild","oat, wild [2]; [24]",90
same,"Plant response rating, Rice",rice,0
same,"Pigweed, Palmer plant response rating","pigweed, palmer [3]; [23]",0
same,"Plant response rating, Pigweed, Palmer","pigweed, palmer [3]; [24]",20
same,"Plant response rating, Goosegrass",goosegrass [4]; 125 g ai/ha,90
same,"Plant response rating, Goosegrass",goosegrass [4]; 500 g ai/ha,100
same,Ragweed plant response rating,ragweed [5]; [23],0
same,"Plant response rating, Ragweed",ragweed [5]; [24],30
same,"Plant response rating, Kochia",kochia [6]; 125 g ai/ha,0
same,"Plant response rating, Kochia",kochia [6]; 500 g ai/ha,70
same,Goosegrass plant response rating,goosegrass [7]; [23],20
same,"Plant response rating, Goosegrass",goosegrass [7]; [24],40
same,"Plant response rating, Ducksalad",ducksalad,0
same,"Ryegrass, Italian plant response rating","ryegrass, Italian [8]; [23]",10
same,"Plant response rating, Ryegrass, Italian","ryegrass, Italian [8]; [24]",60
same,"Plant response rating, Ryegrass, Italian","ryegrass, Italian [9]; 125 g ai/ha",70
same,"Plant response rating, Ryegrass, Italian","ryegrass, Italian [9]; 500 g ai/ha",100
same,Horseweed plant response rating,horseweed; [23],0
same,"Plant response rating, Horseweed",horseweed; [24],0
same,Kochia plant response rating,kochia [10]; [23],30
same,"Plant response rating, Kochia",kochia [10]; [24],80
same,"Plant response rating, Pigweed, Palmer","pigweed, palmer [11]; 125 g ai/ha",40
same,"Plant response rating, Pigweed, Palmer","pigweed, palmer [11]; 500 g ai/ha",100
same,"Plant response rating, Wheat",wheat [12]; 125 g ai/ha,0
same,"Plant response rating, Wheat",wheat [12]; 500 g ai/ha,30
same,Corn plant response rating,corn [13]; [23],0
same,"Plant response rating, Corn",corn [13]; [24],70
same,"Plant response rating, Sedge, Umbrella","sedge, umbrella",0
same,Wheat plant response rating,wheat [14]; [23],10
same,"Plant response rating, Wheat",wheat [14]; [24],30
same,Galium plant response rating,galium; [23],10
same,"Plant response rating, Galium",galium; [24],30
same,Blackgrass plant response rating,blackgrass [15]; [23],0
same,"Plant response rating, Blackgrass",blackgrass [15]; [24],70
same,"Plant response rating, Blackgrass",blackgrass [16]; 125 g ai/ha,20
same,"Plant response rating, Blackgrass",blackgrass [16]; 500 g ai/ha,70
same,"Plant response rating, Corn",corn [17]; 125 g ai/ha,0
same,"Plant response rating, Corn",corn [17]; 500 g ai/ha,30
same,"Plant response rating, Soybean",soybean [18]; 125 g ai/ha,40
same,"Plant response rating, Soybean",soybean [18]; 500 g ai/ha,60
same,"Plant response rating, Foxtail, Giant","foxtail, giant [19]; 125 g ai/ha",20
same,"Plant response rating, Foxtail, Giant","foxtail, giant [19]; 500 g ai/ha",100
same,"Plant response rating, Barnyardgrass",barnyardgrass,0
same,Soybean plant response rating,soybean [20]; [23],40
same,"Plant response rating, Soybean",soybean [20]; [24],80
same,"Foxtail, Giant plant response rating","foxtail, giant [21]; [23]",10
same,"Plant response rating, Foxtail, Giant","foxtail, giant [21]; [24]",50
same,"Plant response rating, Oat, Wild","oat, wild [22]; 125 g ai/ha",30
same,"Plant response rating, Oat, Wild","oat, wild [22]; 500 g ai/ha",90
